Results published in article PMC6344527, “Toxicity and possible mechanisms of action of honokiol from Magnolia denudata seeds against four mosquito species” (Scientific Reports, 2019).
In brackets after ≈: the same amount, converted by molar mass. Read-outs that look alike come from different tables or passages of the source.

Key:
[1] = test system: third-instar larvae of insecticide-susceptible Culex pipiens pallens; test: contact mortality bioassay, 24 h exposure; assay type: in vivo; details: for LC50: Culex pipiens, 24 h; for LC50 / LC90 (mg/L) (95% CI) / LC50 (mg/L) (95% CI): 24 h exposure
Experimental: (§1) A contact mortality bioassay[25] was used to evaluate the toxicity of all compounds against third-instar larvae of the four mosquito species. Each test compound in methanol was suspended in DW with Triton X-100 (20 µL/L). Groups of 20 mosquito larvae were separately placed into paper cups (270 mL) containing each compound solution (250 mL). […] Negative controls consisted of a methanol–Triton X-100 solution in DW.
(§2) Treated and control (methanol–Triton X-100 solution only) larvae were maintained under the same conditions as those used for colony maintenance without providing food. Larval mortalities were determined 24 h post-treatment. […] All treatments were performed three times using 20 larvae per replicate.
(§3) The concentration of the test compounds required to produce 50% AChE inhibitory activity (IC50) was determined using the SAS 9.13 program (Cary: SAS Institute; 2014). Concentration-mortality data were subjected to probit analysis using the SAS 9.13 program. […] Statistical analyses were performed using the SAS 9.13 program. Multiple linear regression and correlation analysis were performed using the SPSS 24 program (Armonk: IBM Corp.; 2016).

[2] = test system: third-instar larvae of insecticide-susceptible Aedes aegypti; test: contact mortality bioassay, 24 h exposure; assay type: in vivo; details: for LC50: Aedes aegypti, 24 h; for LC50 / LC90 (mg/L) (95% CI) / LC50 (mg/L) (95% CI): 24 h exposure
Experimental: as §1, §2, §3

[3] = test system: larvae of four mosquito species (Cx. pipiens pallens, Ae. aegypti, Ae. albopictus, and An. sinensis); test: contact mortality bioassay, range over four mosquito species; assay type: in vivo; details: 24 h
Experimental: as §1, §2, §3

[4] = test system: third-instar larvae of insecticide-resistant Anopheles sinensis; test: contact mortality bioassay, 24 h exposure; assay type: in vivo; details: Table 5, larvae resistant to deltamethrin and temephos, 24 h exposure; for LC50: Anopheles sinensis, read-out: LC50 (mg/L) (95% CI); for Slope ± SE: probit slope
Experimental: as §1, §2, §3

[5] = test system: third-instar larvae of insecticide-susceptible Aedes albopictus; test: contact mortality bioassay, 24 h exposure; assay type: in vivo; details: for LC50: Aedes albopictus, read-out: LC50 (mg/L) (95% CI); for LC50 / LC90 (mg/L) (95% CI) / Slope ± SE: Table 4, 24 h exposure; for Slope ± SE: probit slope
Experimental: as §1, §2, §3

mosquito species larvae = details: cited from earlier work
[6] = molecular target: acetylcholinesterase (AChE) from third-instar Ae. aegypti larvae (Aedes aegypti, UniProt A4GND7); test: acetylcholinesterase inhibition assay; assay type: biochemical; details: based on IC50 values
Sequence of acetylcholinesterase (AChE) from third-instar Ae. aegypti larvae (A4GND7 37-679): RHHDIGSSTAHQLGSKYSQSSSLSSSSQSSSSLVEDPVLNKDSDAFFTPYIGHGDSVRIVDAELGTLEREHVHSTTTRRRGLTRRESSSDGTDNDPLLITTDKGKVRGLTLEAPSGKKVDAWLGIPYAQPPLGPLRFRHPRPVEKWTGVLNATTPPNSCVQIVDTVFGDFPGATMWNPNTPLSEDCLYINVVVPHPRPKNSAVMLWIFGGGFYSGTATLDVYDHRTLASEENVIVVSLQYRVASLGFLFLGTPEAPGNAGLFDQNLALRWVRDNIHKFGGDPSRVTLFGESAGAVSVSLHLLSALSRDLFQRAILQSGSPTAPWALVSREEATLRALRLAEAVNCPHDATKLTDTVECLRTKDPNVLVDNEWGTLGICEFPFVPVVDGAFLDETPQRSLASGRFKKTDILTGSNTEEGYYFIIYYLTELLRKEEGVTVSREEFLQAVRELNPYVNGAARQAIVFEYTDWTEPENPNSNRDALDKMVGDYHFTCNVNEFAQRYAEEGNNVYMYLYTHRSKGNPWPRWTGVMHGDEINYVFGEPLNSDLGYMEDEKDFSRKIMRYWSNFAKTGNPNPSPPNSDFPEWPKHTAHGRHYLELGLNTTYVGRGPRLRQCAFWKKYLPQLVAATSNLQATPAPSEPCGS
Experimental: The in vitro AChE inhibitory activity of the test compounds was assessed according to the method of Perumalsamy et al.[42]. Third-instar Ae. aegypti larvae were used in all experiments. Whole bodies of 50 larvae were homogenized in 1 mL of ice-cold 0.1 M phosphate buffer (pH 8.0) using a glass tissue homogenizer. After filtering through cheesecloth, the homogenate was centrifuged at 1,000 × g at 4 °C for 5 min. The supernatant was used directly as the enzyme source for AChE. The protein levels were determined using the Bradford Protein Assay Kit (Bio-Rad Laboratories, Hercules, CA, USA) using BSA as the standard. The reaction mixture consisted of 50 µL of the crude enzyme preparation (4.3–4.8 µg protein equivalents), 150 µL of 0.1 M phosphate buffer, 20 µL of 3 mM DTNB in phosphate buffer (pH 7.0), and 1 µL of various concentrations of each test compound in ethanol. The reaction mixture was incubated at 30 °C for 5 min, and 20 µL of 32 mM ATChI was then added to the mixture. After incubation for 30 min, the reaction was terminated by adding 20 µL of 5 mM eserine salicylate. Absorbance was recorded at 412 nm using a VersaMax microplate reader (Molecular Devices, Sunnyvale, CA, USA). […] The results are expressed as the means ± standard errors (SEs) of triplicate samples from three independent experiments.
as §3

[7] = Table 6, structure-activity series, read-out: LC50 (mg/L) (95% CI)
[8] = Table 6, structure-activity series
[9] = Table 7, structure-activity series, read-out: LC50 (mg/L) (95% CI)
[10] = Table 7, structure-activity series
[11] = Table 2, KS-CP strain, read-out: LC50 (mg/L) (95% CI)
[12] = Table 2, KS-CP strain, listed as Pure palmitic acid
[13] = Table 3, read-out: LC50 (mg/L) (95% CI)
[14] = Table 3, listed as Pure palmitic acid
[15] = Table 3, listed as Pure linoleic acid

## O=C(O)/C=C/c1ccc(O)c(O)c1 [Caffeic acid, caffeic acid]
[1]; [7]
  LC50: 119 mg/L (≈ 662 µM)
[1]; [8]
  LC90 (mg/L) (95% CI): 245.6 (208.1–323.3) mg/L
[2]; [9]
  LC50: 124 mg/L (≈ 691 µM)
[2]; [10]
  LC90 (mg/L) (95% CI): 235.9 (204.2–296.1) mg/L

## CCCCCCCCCCCCCCCC(=O)O [Palmitic acid, hexadecanoic acid]
[3]
  LC50: 32.6 to 47.6 mg/L (≈ 127 to 186 µM)
[1]; [11]
  LC50: 32.6 mg/L (≈ 127 µM)
[1]; Table 2, KS-CP strain, listed as Natural palmitic acid
  LC90 (mg/L) (95% CI): 112.3 (88.96–156.2) mg/L
[1]; [12]
  LC50 (mg/L) (95% CI): 34.92 (29.48–40.76) mg/L
  LC90 (mg/L) (95% CI): 119.3 (94.38–166.4) mg/L
[4]
  LC50: 47.6 mg/L (≈ 186 µM)
  LC90 (mg/L) (95% CI): 192.8 (148.1–282.2) mg/L
  Slope ± SE: 2.1 ± 0.22
[2]; [13]
  LC50: 33.5 mg/L (≈ 131 µM)
[2]; Table 3, listed as Natural palmitic acid
  LC90 (mg/L) (95% CI): 129.3 (99.59–189.2) mg/L
[2]; [14]
  LC50 (mg/L) (95% CI): 36.49 (29.30–44.83) mg/L
  LC90 (mg/L) (95% CI): 204.1 (139.4–378.1) mg/L
[5]
  LC50: 36.9 mg/L (≈ 144 µM)
  LC90 (mg/L) (95% CI): 135.1 (104.3–196.9) mg/L
  Slope ± SE: 3.1 ± 0.38
Mosquito species larvae; flavonoids and fatty acids
  LC50: 34.50 to 42.96 mg/L

## CCCCC/C=C\C/C=C\CCCCCCCC(=O)O [Linoleic acid, (9Z,12Z)-9,12-octadecadienoic acid]
[3]
  LC50: 6.97 to 7.5 mg/L (≈ 24.9 to 26.7 µM)
[1]; [11]
  LC50: 6.97 mg/L (≈ 24.9 µM)
[1]; Table 2, KS-CP strain, listed as Natural linoleic acid
  LC90 (mg/L) (95% CI): 19.41 (15.94–26.34) mg/L
[1]; Table 2, KS-CP strain, listed as Pure linoleic acid
  LC50 (mg/L) (95% CI): 8.36 (6.09–10.40) mg/L
[1]; from 24 h LC50 values
  times less toxic than temephos: 430 times
[4]
  LC50: 7.5 mg/L (≈ 26.7 µM)
  LC90 (mg/L) (95% CI): 16.04 (14.05–19.06) mg/L
  Slope ± SE: 3.9 ± 0.56
[2]; [13]
  LC50: 7.19 mg/L (≈ 25.6 µM)
[2]; Table 3, listed as Natural linoleic acid
  LC90 (mg/L) (95% CI): 27.04 (20.52–43.96) mg/L
[2]; [15]
  LC50 (mg/L) (95% CI): 7.34 (5.58–8.92) mg/L
  LC90 (mg/L) (95% CI): 29.70 (23.19–43.79) mg/L
[2]; from 24 h LC50 values
  times less toxic than temephos: 575 times
[5]
  LC50: 7.28 mg/L (≈ 26 µM)
  LC90 (mg/L) (95% CI): 27.81 (20.95–46.02) mg/L
  Slope ± SE: 4.4 ± 0.59
[5]; from 24 h LC50 values
  times less toxic than temephos: 552 times

## C=C[C@H](O)C#CC#CC/C=C\CCCCCCC [falcarinol]
Mosquito species larvae; acetylenic alcohols
  LC50: 3.49 mg/L (≈ 14.3 µM)

## CC(C)=C1C[C@H]2C(=C(C)CC1=O)CC[C@]2(C)O [neoprocurcumenol]
Mosquito species larvae; terpenoids
  LC50: 13.69 mg/L (≈ 58.4 µM)

## C=CCc1cc(OC)c(O)c(OC)c1 [Methoxyeugenol, methoxyeugenol]
[6]
  AChE inhibitory activity (in words): lowest of all of the compounds that were examined
[1]; [7]
  LC50: 8.4 mg/L (≈ 43.2 µM)
[1]; [8]
  LC90 (mg/L) (95% CI): 25.52 (20.27–36.92) mg/L
[2]; [9]
  LC50: 9.15 mg/L (≈ 47.1 µM)
[2]; [10]
  LC90 (mg/L) (95% CI): 29.46 (22.83–44.88) mg/L

## COc1ccccc1O [Guaiacol, guaiacol]
[1]; [7]
  LC50: 108 mg/L (≈ 868 µM)
[1]; [8]
  LC90 (mg/L) (95% CI): 205.6 (176.3–260.9) mg/L
[2]; [9]
  LC50: 115 mg/L (≈ 930 µM)
[2]; [10]
  LC90 (mg/L) (95% CI): 223.1 (188.3–292.1) mg/L

## C=CCc1cccc(OC)c1O [o-Eugenol, o-eugenol]
[6]
  AChE inhibitory activity (in words): relatively weak AChE inhibitors
[1]; [7]
  LC50: 7.46 mg/L (≈ 45.4 µM)
[1]; [8]
  LC90 (mg/L) (95% CI): 23.13 (18.42–33.49) mg/L
[2]; [9]
  LC50: 8.84 mg/L (≈ 53.8 µM)
[2]; [10]
  LC90 (mg/L) (95% CI): 24.01 (19.52–33.06) mg/L

## COP(=O)(OC)OC=C(Cl)Cl [Dichlorvos, dichlorvos, reference compound]
[6]
  AChE inhibitory activity (in words): did not differ significantly
[1]; read-out: LC50 (mg/L) (95% CI), Table 6, structure-activity series
  LC50: 0.103 mg/L (≈ 0.466 µM)
[1]; [8]
  LC90 (mg/L) (95% CI): 0.504 (0.380–0.761) mg/L
[2]; read-out: LC50 (mg/L) (95% CI), Table 7, structure-activity series
  LC50: 0.158 mg/L (≈ 0.715 µM)
[2]; [10]
  LC90 (mg/L) (95% CI): 0.660 (0.505–0.963) mg/L

## CCc1ccc(O)cc1 [p-Ethylphenol, p-ethylphenol]
[6]
  AChE inhibitory activity (in words): relatively weak AChE inhibitors
[1]; [7]
  LC50: 8.3 mg/L (≈ 67.9 µM)
[1]; [8]
  LC90 (mg/L) (95% CI): 25.86 (20.36–38.21) mg/L
[2]; [9]
  LC50: 9.03 mg/L (≈ 73.9 µM)
[2]; [10]
  LC90 (mg/L) (95% CI): 30.57 (23.29–48.51) mg/L
